# Experimental data as given in patent publication US20130136778A1, “PTEROSTILBENE (PTER) FOR USE IN THE PREVENTION AND/OR TREATMENT OF SKIN DISEASES, DAMAGES OR INJURIES” (GREEN MOLECULAR, S.L., priority 2009, published 2013).
# Legend:
# SKH-1 mice = test: Experimental atopic dermatitis induced by TNCB; assay type: in vivo
# Description: Also, on certain specific days prior to sacrificing them, the mice were assessed by a veterinarian who analyzed the skin lesions, qualifying them in function of: • Erythema: redness of the skin conditioned by inflammation due to the excess of blood irrigation by the dilation of blood vessels. • Excoriation: or irritation of the skin with flaky aspect, increase in the descaling of the skin which could result in hyperkeratosis. • The depth of the lesion that could reach the dermis producing soars or ulcers. Each variable was evaluated on a scale of 0-4, 0, for none; 1, for mild; 2, for moderate; 3, marked; and 4, very marked. The addition of the 3 values of each mouse indicated the degree of inflammation. […] Furthermore, the continuous administration of TNCB ointment increased the production of T-lymphocytes, mastocytes and IgE in the serum, as it occurs among human patients with atopic dermatitis. […] Nonetheless, the objective evaluation of these characteristics is complex, and the measuring of the loss of transepidermal water (PTEA or TEWL) assessed through the Tewameter TM 210 system (CK electronics, Germany) is considered an indicator of the functions of cutaneous “barriers” (g/h/cm2). […] TEWL readings were performed continuously until the metrics were stabilized, which can produce between 30-60 seconds of readings.
# BALB/c mice = test: Contact hypersensitivity induced by oxazolone (ear edema); assay type: in vivo; conditions: FIG. 22; 1 μmol polyphenols, 20 mg diprosone; applied after oxazolone
# Description: The edema was calculated as the difference between the thickness that was produced in the ears, before the outcomes of the reaction, and their thickness 24 hours later, and it was measured with a vernier caliper.
# The change was expressed as the relative increase in relation to day 0.
# The application of oxazolone after sensitization to the same substance produces a reaction of hypersensitivity by contact, which appears as an eczematous reaction, with infiltration of lymphocytes and macrophages, with edema of the epidermis.
# The BALB/c mice are sensitized on day 0 through the application, on the shaved abdomen, of 100 μL of oxazolone at 1.5% in acetone (w/v). Prior to the induction for hypersensitization, the thickness of the ear was measured with the help of a vernier caliper (Mitutoyo micrometer). The reaction was caused on day 7 by applying 20 μL of 2.5% oxazolone in ethanol (10 μL to each side of the right ear).
# As a control measure the left ear was used, to which 20 μL of ethanol was applied. And a standard treatment, Diprosone® cream was used: (Schering Plough B. V., Utrecht, The Netherlands), that contains 0.5 mg de betamethasone/g. […]
compound,measurement,setting,value
"COc1cc(/C=C/c2ccc(O)cc2)cc(OC)c1 [PTER, 3,5-dimethoxy-4′-hydroxy-trans-resveratrol]",increase in the skinfold 24 hours after the first administration of TNCB,"SKH-1 mice; FIG. 19, 10 μmoles polyphenols, 0.5 μmoles dexamethasone 24 h before 1% TNCB",decreased their inflammatory effect due to the TNCB agent
same,index of lesions (macroscopic assessment),"SKH-1 mice; TNCB model, up to 4 applications of TNCB",produced less serious lesions than with the use of dexamethasone or with respect to the lack of treatment
same,edema of the ear / inflammatory changes induced by oxazolone,BALB/c mice,could prevent inflammatory changes as a result of inflammation induced by oxazolone
